Experimental data taken from publication PMC9810167, “Novel dual LSD1/HDAC6 inhibitor for the treatment of cancer” (PLOS ONE, 2023).
Where two headings read alike, the source gives them in different places.

Tests used:
Hep-G2 = assay: Cell proliferation assay (Alamar Blue); assay type: cell-based; conditions: Homo sapiens, HepG2; Hep-G2, Hepatocellular Carcinoma, 144 h
Experimental: (§1) Cells were seeded in NUNC 96-well tissue culture plates (Life Technologies) in […] culture medium and incubated at 37°C/ 5% CO2 to adhere to plastic for 18–24 h. […] One set of plates (designated for the 144 h read out) were centrifuged at low speed for 30 seconds, and respective compounds were replenished in fresh media and incubated for another 68–72 h at 37°C/ 5% CO2. […] The inhibition curve was then fitted by plotting % inhibition against log concentration in GraphPad Prism 5.0 (GraphPad Software, Inc.) and the GI50 value of compound was determined. Data are representative of at least two independent experiments.

Colo-289 = assay: Cell proliferation assay (Alamar Blue); assay type: cell-based; conditions: Colo-289, Melanoma, 144 h
Experimental: as §1

THP-1 = assay: Cell proliferation assay (Alamar Blue); assay type: cell-based; conditions: Homo sapiens; THP-1, Leukemia, 144 h
Experimental: as §1

H510A = assay: Cell proliferation assay (Alamar Blue); assay type: cell-based; conditions: Homo sapiens, NCI-H510A, SCLC, 144 h
Experimental: as §1

HT144 = assay: Cell proliferation assay (Alamar Blue); assay type: cell-based; conditions: Homo sapiens, HT-144; HT144, Melanoma, 144 h
Experimental: as §1

RPMI-7591 = assay: Cell proliferation assay (Alamar Blue); assay type: cell-based; conditions: RPMI-7591, Melanoma, 144 h
Experimental: as §1

MM1.R = assay: Cell proliferation assay (Alamar Blue); assay type: cell-based; conditions: MM.1R, Multiple Myeloma, 144 h
Experimental: as §1

H1341 = assay: Cell proliferation assay (Alamar Blue); assay type: cell-based; conditions: H1341, SCLC, 144 h
Experimental: as §1

SKMeI2 = assay: Cell proliferation assay (Alamar Blue); assay type: cell-based; conditions: SKMeI2, Melanoma, 144 h
Experimental: as §1

Hep3B2 = assay: Cell proliferation assay (Alamar Blue); assay type: cell-based; conditions: Homo sapiens, Hep3B; Hep3B2, Hepatocellular Carcinoma, 144 h
Experimental: as §1

HL60-MX1 = assay: Cell proliferation assay (Alamar Blue); assay type: cell-based; conditions: HL60-MX1, Leukemia, 144 h
Experimental: as §1

H2171 = assay: Cell proliferation assay (Alamar Blue); assay type: cell-based; conditions: Homo sapiens, NCI-H2171; H2171, SCLC, 144 h
Experimental: as §1

G362 = assay: Cell proliferation assay (Alamar Blue); assay type: cell-based; conditions: G362, Melanoma, 144 h
Experimental: as §1

WM-266-4 = assay: Cell proliferation assay (Alamar Blue); assay type: cell-based; conditions: Homo sapiens; WM-266-4, Melanoma, 144 h
Experimental: as §1

OCI-AML3 = assay: Cell proliferation assay (Alamar Blue); assay type: cell-based; conditions: Homo sapiens, OCI-AML-3; OCI-AML3, Leukemia, 144 h
Experimental: as §1

HL60 = assay: Cell proliferation assay (Alamar Blue); assay type: cell-based; conditions: Homo sapiens, HL-60; HL60, Leukemia, 144 h
Experimental: as §1

[1] = test system: panel of non-small lung cancer, melanoma, and hepatocellular carcinoma tumor cell lines; assay: Cell proliferation assay, solid tumor cell line panel; assay type: cell-based; conditions: 144 h; 6 days; range over cell lines; read-out: EC50 values across solid tumor panel
Experimental: as §1

HDAC1 = molecular target: T1, HDAC1 (Homo sapiens, UniProt Q13547); assay: HDAC isoform inhibition assay (Reaction Biology); assay type: biochemical; conditions: generated at Reaction Biology Corporation
T1 construct: purchased Reaction Biology Corporation (assay run at the CRO)

remaining HDACs = assay: HDAC panel HDAC1 to HDAC10, remaining HDACs (other than HDAC6 and HDAC8); assay type: biochemical; conditions: about […] to >10 μM, read-out: IC50 against the remaining HDACs
Experimental: (§2) Dose-response studies for HDAC isoforms were conducted at Reaction Biology Corporation. All assays are based on the same principle of a two-step reaction: first, the substrate with the acetylated lysine side chain is incubated with a sample containing HDAC enzyme, to produce the deacetylated products, which are then digested in the second step by the addition of the developer to produce the fluorescent signal proportional to the amount of deacetylated substrates. Recombinant proteins HDAC1, HDAC2, HDAC3, HDAC4, HDAC5, HDAC6, HDAC7, HDAC8, HDAC9, and HDAC10 were incubated with a test compound for 5min, and then the fluorophore-conjugated substrate was added to the wells and incubated for 30 min to 2 h for different HDACs. Reactions were performed in assay buffer (50 mM Tris-HCl, pH 8.0, 137 mM NaCl, 2.7 mM KCl, 1 mM MgCl2, 1 mg/mL BSA, 1% DMSO, pH 7.4) and fluorescence measurements were obtained approximately every 20 min for an hour using an Envision, Perkin-Elmer plate reader (Excitation 360 nm/Emission 460 nm). IC50 values and curve fits were obtained using (GraphPad Prism Software, Inc.).

CT-26 syngeneic tumors = assay: CT-26 mouse colon cancer syngeneic model; assay type: in vivo, BALB/c mice; conditions: 14 d
Experimental: For CT-26 syngeneic mouse colon cancer model female BALB/c (6–8 weeks old, Vivo Biotech, India) were used. 1x10^6 CT26 tumor cells in 100 μL of serum-free medium mixed with 1:1 ratio of matrigel were injected s.c. into the right flank of mice. […] During the experiment, body weights were measured 2–3 times a week and tumor volume was measured using callipers every other day in three dimensions. Tumor volume was calculated from the pi-based ellipsoid volume formula π/6*length*width*height. Mice were culled when the tumor volume reached either the ethical limit of 2000 mm^3 or if the tumor was ulcerated. The percentage change in tumor volume from baseline was used to assess the response to treatment. Tumor measurements were performed in a blinded manner throughout the study.

HDAC7 = molecular target: T2, HDAC7 (Homo sapiens, UniProt Q8WUI4); assay: HDAC isoform inhibition assay (Reaction Biology); assay type: biochemical; conditions: generated at Reaction Biology Corporation
T2 construct: purchased Reaction Biology Corporation (assay run at the CRO)
Experimental: as §2

HDAC9 = molecular target: T3, HDAC9 (Homo sapiens, UniProt Q9UKV0); assay: HDAC isoform inhibition assay (Reaction Biology); assay type: biochemical; conditions: generated at Reaction Biology Corporation
T3 construct: purchased Reaction Biology Corporation (assay run at the CRO)
Experimental: as §2

HDAC5 = molecular target: T4, HDAC5 (Homo sapiens, UniProt Q9UQL6); assay: HDAC isoform inhibition assay (Reaction Biology); assay type: biochemical; conditions: generated at Reaction Biology Corporation
T4 construct: purchased Reaction Biology Corporation (assay run at the CRO)
Experimental: as §2

HDAC2 = molecular target: T5, HDAC2 (Homo sapiens, UniProt Q92769); assay: HDAC isoform inhibition assay (Reaction Biology); assay type: biochemical; conditions: generated at Reaction Biology Corporation
T5 construct: purchased Reaction Biology Corporation (assay run at the CRO)
Experimental: as §2

human LSD1 = molecular target: T6, human LSD1 (Homo sapiens, UniProt O60341); assay: Thermal shift assay (SYPRO Orange); assay type: binding; conditions: protein:compound 1:10; Tm in the absence of compound 43°C
T6 construct: Tm of full length LSD1 protein in the absence of compound was 43°C
Experimental: (§3) The melting temperature (Tm) of human LSD1 and HDAC8 proteins were determined by fluorescence based thermal shift assay. Reaction mixture containing 0.5 μM protein, 5X SYPRO™ Orange Protein Gel Stain (Thermo Fisher Scientific Cat: S6650), compound at 10-fold excess for hLSD1, 15-fold excess for hHDAC8. The final volume made up with respective protein buffers. All experiments were done in triplicates at 50 μL reaction volume. The samples heated from 15°C to 95°C with an increment of 1°C per 30sec using CFX96™ Real-Time PCR Detection system–C1000 Thermal Cycler (Bio-Rad). Filters custom configured to the optimal excitation (492 nm) and emission (610 nm) wavelengths for SYPRO orange dye. Protein denaturation monitored by the increase in fluorescence signal emitted by SYPRO Orange. The SYPRO Orange binds to the exposed hydrophobic regions of protein undergoing thermal denaturation and corresponding fluorescence emissions are recorded as melt curves. The temperature corresponding to the inflection point, Tm is determined by calculating the first derivative from melt curve using CFX manager 3.1 software (Bio-Rad).

hHDAC8 = hHDAC8 (Homo sapiens, UniProt Q9BY41); assay: Thermal shift assay (SYPRO Orange); assay type: binding; conditions: protein:compound 1:15; Tm without compound 41°C
Experimental: as §3

MM1.S xenograft = assay: MM1.S multiple myeloma xenograft model; assay type: in vivo; conditions: for TGI: 13 d
HEL 92.1.7 = assay: Cell proliferation assay (Alamar Blue); assay type: cell-based, human; conditions: for EC50: Homo sapiens
Experimental: as §1

CD11b = assay: Differentiation marker mRNA by RT-qPCR in HEL 92.1.7 cells; assay type: cell-based, human; conditions: HEL92.1.7, 3–48 h
Experimental: (§4) Total RNA was isolated using the TRIzol (Thermo Fisher Scientific, Waltham, MA, USA) reagent according to the manufacturer's instructions. The obtained RNA was reverse-transcribed to synthesize the complementary DNA from RNA using High Capacity cDNA Reverse Transcription Kit (Applied Biosystems, U.S.). DyNAmo ColorFlash SYBR Green qPCR Kit (Thermo Fisher Scientific) was used with cDNA and gene specific primers at a final volume of 10 μL. Real-time quantitative PCR was performed for 40 cycles of 15 s each, at 95°C and 30 s at 60°C, using a CFX96 real time machine (Bio-Rad). All reactions were performed in duplicate and the data was calculated using the delta (delta Ct) method. The relative gene expression levels for a target gene was normalized to the expression of β-actin. All the primer sequences were procured from Eurofins Genomics India Limited. Primer sequences for the analysed genes are as follows: • beta Actin [NT], beta Actin [NT]. Gfi1b [NT], Gfi1b [NT], CD86 [NT], CD86 […], CD11b [NT]

GFI1b = assay: as above; assay type: cell-based, human; conditions: HEL92.1.7, 3–48 h
Experimental: as §4

CD86 = assay: as above; assay type: cell-based, human; conditions: HEL92.1.7, 3–48 h
Experimental: as §4

acetylation of α-Tubulin = assay: Western blot of tubulin acetylation in HEL92.1.7 cells; assay type: cell-based, human; conditions: HEL92.1.7, 3 to 48 h, 8 point dose response from 10 μM
Experimental: Cells were harvested and washed twice with cold PBS after the indicated treatments. Cell pellets were lysed in 30μl of lysis buffer (50 mM Tris-HCl, pH 7.4, 150 mM NaCl, 1% Triton X-100, 0.1% SDS, 1 mM EDTA, 1 mM Na3VO4, 1 mM NaF, and protease inhibitor cocktail) for 30 min on ice. Lysates were centrifuged at 12,000 ×g for 20 min at 4°C, and the protein content in the supernatants was determined using the Bradford reagent (Bio-Rad). Equal amount of protein lysate was resolved by SDS-PAGE and transferred onto a nitrocellulose membrane (Bio-Rad). Membranes were blocked with 5% non-fat milk powder in PBS-Tween 20 buffer for 1 h, followed by incubation with primary antibody at 4°C overnight. Membranes were washed in PBST and then incubated with HRP-conjugated anti-goat or mouse anti- IgG (Cell Signalling Technology) antibody and detected using the Millipore ECL Western Blot substrate. β-actin was used as a loading control. Antibodies were obtained from the following sources: Acetyl-α- Tubulin (Cell Signalling Technology, […], 1:500), β-actin (Santa Cruz Biotechnology, sc47778, 1:2000), HRP-conjugated secondary antibodies (Santa Cruz Biotechnology, 1:2000 for β-actin blots, 1:1000 for all others). Blots shown are representative of at least two independent experiments.

[2] = test system: HEL92.1.7 xenograft tumors; assay: HEL92.1.7 erythroleukaemia xenograft model; assay type: in vivo; conditions: for % tumor growth inhibition (TGI): PO, QD, 14 days

T4 sequence (Q9UQL6 whole entry, canonical isoform): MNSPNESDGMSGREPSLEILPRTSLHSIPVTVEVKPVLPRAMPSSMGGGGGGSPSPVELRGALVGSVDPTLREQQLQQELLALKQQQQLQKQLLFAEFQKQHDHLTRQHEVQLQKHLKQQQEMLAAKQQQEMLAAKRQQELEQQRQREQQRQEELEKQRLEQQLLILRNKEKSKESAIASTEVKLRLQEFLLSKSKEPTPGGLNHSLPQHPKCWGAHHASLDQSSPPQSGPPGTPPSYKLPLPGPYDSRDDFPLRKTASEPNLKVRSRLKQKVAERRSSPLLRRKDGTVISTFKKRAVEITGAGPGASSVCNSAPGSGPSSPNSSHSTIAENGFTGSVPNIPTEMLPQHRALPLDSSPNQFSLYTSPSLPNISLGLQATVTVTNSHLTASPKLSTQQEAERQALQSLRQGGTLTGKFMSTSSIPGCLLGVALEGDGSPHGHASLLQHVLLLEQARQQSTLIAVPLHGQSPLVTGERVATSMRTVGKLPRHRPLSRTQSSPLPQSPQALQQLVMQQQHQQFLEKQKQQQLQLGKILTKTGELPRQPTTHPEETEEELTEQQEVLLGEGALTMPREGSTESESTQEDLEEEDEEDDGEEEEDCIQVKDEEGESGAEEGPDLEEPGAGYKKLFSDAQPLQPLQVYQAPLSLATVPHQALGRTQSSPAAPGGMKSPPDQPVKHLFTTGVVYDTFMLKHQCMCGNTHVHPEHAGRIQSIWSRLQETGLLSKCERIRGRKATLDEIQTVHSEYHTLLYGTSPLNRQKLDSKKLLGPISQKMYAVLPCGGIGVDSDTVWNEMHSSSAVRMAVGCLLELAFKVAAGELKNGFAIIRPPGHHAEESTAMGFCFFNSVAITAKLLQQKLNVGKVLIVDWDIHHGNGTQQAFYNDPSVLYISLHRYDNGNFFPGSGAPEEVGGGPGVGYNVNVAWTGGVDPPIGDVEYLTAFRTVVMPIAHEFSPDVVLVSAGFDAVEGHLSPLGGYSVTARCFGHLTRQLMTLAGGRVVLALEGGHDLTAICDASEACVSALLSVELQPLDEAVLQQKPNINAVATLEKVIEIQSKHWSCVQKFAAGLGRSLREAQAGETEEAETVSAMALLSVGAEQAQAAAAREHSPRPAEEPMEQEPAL
T5 sequence (Q92769 whole entry, canonical isoform): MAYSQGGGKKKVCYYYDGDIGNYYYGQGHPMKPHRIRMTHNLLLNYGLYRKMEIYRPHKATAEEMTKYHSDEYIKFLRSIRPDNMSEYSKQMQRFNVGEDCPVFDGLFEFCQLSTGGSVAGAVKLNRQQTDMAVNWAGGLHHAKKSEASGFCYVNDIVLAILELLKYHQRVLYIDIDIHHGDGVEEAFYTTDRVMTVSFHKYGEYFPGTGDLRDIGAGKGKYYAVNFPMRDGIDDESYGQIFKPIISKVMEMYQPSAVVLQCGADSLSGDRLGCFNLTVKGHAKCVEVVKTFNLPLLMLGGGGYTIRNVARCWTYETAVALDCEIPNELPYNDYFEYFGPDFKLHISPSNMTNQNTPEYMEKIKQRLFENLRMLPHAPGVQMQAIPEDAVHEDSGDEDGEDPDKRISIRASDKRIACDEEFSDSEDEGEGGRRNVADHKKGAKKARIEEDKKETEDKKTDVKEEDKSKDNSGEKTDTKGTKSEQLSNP
T3 sequence (Q9UKV0 whole entry, canonical isoform): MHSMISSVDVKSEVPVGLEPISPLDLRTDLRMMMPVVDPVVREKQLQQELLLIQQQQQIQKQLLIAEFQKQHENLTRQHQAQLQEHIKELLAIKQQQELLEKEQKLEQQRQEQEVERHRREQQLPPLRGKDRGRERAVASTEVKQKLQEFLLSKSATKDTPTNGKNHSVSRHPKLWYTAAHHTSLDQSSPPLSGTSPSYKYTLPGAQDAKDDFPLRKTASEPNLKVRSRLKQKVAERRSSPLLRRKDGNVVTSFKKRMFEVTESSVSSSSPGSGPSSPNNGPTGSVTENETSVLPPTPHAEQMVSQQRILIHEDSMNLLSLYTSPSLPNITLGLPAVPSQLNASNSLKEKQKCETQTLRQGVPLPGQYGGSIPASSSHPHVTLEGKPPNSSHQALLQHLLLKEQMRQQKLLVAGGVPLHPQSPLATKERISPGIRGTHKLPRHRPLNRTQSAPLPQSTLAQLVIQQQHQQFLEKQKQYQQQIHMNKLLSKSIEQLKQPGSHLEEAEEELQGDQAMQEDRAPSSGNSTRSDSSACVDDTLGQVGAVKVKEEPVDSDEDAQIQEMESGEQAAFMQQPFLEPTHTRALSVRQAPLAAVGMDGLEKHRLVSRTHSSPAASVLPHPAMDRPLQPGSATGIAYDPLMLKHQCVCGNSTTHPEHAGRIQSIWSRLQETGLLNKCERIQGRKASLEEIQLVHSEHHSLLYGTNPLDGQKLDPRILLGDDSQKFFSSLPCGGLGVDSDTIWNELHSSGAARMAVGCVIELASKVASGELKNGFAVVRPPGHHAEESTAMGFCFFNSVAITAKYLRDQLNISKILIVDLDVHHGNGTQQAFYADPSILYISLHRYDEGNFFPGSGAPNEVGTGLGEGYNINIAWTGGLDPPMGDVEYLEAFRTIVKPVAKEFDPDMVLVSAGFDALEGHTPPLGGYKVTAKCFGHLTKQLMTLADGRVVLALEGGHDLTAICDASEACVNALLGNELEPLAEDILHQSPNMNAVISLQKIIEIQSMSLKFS
Chain of hHDAC8 (Q9BY41 whole entry): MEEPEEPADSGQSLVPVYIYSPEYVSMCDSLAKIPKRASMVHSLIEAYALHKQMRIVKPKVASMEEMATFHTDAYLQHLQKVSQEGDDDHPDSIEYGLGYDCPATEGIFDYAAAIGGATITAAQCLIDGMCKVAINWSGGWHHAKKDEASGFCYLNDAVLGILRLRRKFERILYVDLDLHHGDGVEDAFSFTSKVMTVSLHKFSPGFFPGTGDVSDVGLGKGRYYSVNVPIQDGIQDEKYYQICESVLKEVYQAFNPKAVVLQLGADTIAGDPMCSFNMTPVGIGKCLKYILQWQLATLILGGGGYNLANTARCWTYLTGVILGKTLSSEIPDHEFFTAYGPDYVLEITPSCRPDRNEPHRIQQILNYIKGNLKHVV
T1 sequence (Q13547 whole entry, canonical isoform): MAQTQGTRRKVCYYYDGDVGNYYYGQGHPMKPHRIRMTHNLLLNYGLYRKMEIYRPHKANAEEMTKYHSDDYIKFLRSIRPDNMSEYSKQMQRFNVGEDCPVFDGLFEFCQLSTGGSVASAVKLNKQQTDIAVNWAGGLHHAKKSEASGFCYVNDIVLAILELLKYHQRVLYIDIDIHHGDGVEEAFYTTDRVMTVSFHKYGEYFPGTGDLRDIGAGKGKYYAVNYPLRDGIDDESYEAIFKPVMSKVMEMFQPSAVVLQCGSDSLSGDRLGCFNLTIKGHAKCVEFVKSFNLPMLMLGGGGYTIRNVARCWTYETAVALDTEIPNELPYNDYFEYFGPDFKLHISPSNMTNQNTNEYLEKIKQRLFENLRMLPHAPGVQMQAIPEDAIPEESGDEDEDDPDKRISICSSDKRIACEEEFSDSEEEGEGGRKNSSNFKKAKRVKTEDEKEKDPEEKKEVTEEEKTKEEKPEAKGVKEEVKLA
T2 sequence (Q8WUI4 whole entry, canonical isoform): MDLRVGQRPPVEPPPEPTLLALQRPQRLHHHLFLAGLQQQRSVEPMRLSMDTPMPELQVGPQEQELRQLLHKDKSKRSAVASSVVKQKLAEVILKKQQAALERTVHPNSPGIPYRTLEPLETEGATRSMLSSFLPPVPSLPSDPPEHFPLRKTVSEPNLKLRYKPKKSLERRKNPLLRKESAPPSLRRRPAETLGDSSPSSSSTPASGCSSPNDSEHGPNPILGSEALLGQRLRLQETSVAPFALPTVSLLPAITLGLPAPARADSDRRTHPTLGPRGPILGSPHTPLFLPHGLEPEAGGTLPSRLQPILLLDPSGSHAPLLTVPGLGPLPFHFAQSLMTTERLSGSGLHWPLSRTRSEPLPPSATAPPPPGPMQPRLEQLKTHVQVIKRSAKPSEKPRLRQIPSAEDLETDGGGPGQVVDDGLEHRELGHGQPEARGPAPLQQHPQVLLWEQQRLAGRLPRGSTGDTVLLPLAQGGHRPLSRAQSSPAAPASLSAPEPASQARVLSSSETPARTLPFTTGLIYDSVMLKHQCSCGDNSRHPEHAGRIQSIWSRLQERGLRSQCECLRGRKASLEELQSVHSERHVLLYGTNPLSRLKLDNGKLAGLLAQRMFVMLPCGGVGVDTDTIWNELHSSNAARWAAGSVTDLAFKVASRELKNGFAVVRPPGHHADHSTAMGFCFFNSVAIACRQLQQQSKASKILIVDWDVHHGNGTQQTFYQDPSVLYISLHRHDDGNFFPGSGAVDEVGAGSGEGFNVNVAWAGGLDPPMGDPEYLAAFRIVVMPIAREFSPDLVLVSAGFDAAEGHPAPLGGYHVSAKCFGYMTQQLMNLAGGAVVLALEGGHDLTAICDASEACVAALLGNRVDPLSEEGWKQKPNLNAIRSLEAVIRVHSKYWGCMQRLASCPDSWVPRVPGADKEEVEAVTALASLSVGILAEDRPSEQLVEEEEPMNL

O=C(NO)c1ccc(CCCN2CCC(CN[C@H]3C[C@@H]3c3ccccc3)CC2)cc1 (relative stereo) [JBI-097]
EC50 (Hep-G2): 1100 nM | EC50 (Colo-289): 2180 nM | EC50 (THP-1): 226 nM | EC50 (H510A): 1060 nM | EC50 (HT144): 3140 nM | EC50 (RPMI-7591): 8090 nM | EC50 (MM1.R): 29 nM | EC50 (H1341): 3260 nM | EC50 (SKMeI2): 1830 nM | EC50 (Hep3B2): 1300 nM | EC50 (HL60-MX1): 34 nM | EC50 (H2171): 2700 nM | EC50 (G362): 7640 nM | EC50 (WM-266-4): 6830 nM | EC50 (OCI-AML3): 30 nM | EC50 (HL60): 1500 nM | EC50 [1]: 1060 to 8090 nM | IC50 (HDAC1): 3400 nM | IC50 (remaining HDACs): ≥ 1100 nM | TGI (CT-26 syngeneic tumors; JBI-097 20 mg/kg PO in combination with anti-PD-L1 100 μg/animal IP Q4D): 76% | TGI (CT-26 syngeneic tumors; JBI-097 alone, 20 mg/kg PO, 5 days on 2 days off): 50% | IC50 (HDAC7): 3580 nM | IC50 (HDAC9): 3430 nM | IC50 (HDAC5): 1140 nM | IC50 (HDAC2): 3950 nM | Tm of LSD1 incubated with compound (human LSD1): 55 °C | Tm of HDAC8 incubated with compound (hHDAC8): 47 °C | TGI (MM1.S xenograft; JBI-097 12.5 mg/kg PO in combination with BTZ (0.5 mg/kg IP BIW)): 82% | tolerability (MM1.S xenograft; JBI-097 12.5 mg/kg PO in combination with Pomalidomide): well tolerated | TGI (MM1.S xenograft; JBI-097 12.5 mg/kg PO in combination with pomalidomide (2.5 mg/kg PO 5x/week)): 60% | TGI (MM1.S xenograft; single agent, 12.5 mg/Kg PO QD): 23% | cell growth inhibition reached (plateau) (HEL 92.1.7; HEL92.1.7, 6 days of incubation, up to 10 μM): 100% | EC50 (HEL 92.1.7; HEL 92.1.7, read-out: anti-proliferative EC50, HEL92.1.7, 3 days (72 h) of incubation): 722 nM | EC50 (HEL 92.1.7; HEL 92.1.7, Leukemia, 144 h, read-out: EC50, 144hr): 49 nM | CD11b modulation (mRNA) (CD11b): strong and sustained up-regulation | GFI1b modulation (mRNA) (GFI1b): strong and sustained up-regulation | CD86 modulation (mRNA) (CD86): strong and sustained up-regulation | acetylation of α-Tubulin (acetylation of α-Tubulin): time and concentration dependent increase | % tumor growth inhibition (TGI) ([2]; 25 mg/kg): 76% | body weight loss ([2]; 50 mg/kg group, observed in 2 animals): 5–10% | % tumor growth inhibition (TGI) ([2]; 50 mg/kg): 91%

CC(C)C[C@H](NC(=O)[C@H](Cc1ccccc1)NC(=O)c1cnccn1)B(O)O [Bortezomib, reference compound]
mortality (MM1.S xenograft; Bortezomib 0.5 mg/kg IP BIW, mice dead/group): 1/7
